Measured values published in PMC4289617 (Journal of medicinal chemistry, 2010).
Each block holds one molecule with its values, some of them ahead of it. Peptide text beside a SMILES is read from it.

Target: WDR5 (Homo sapiens, UniProt P61964)
Assay: FP-based competitive binding assay
Conditions: for times increase in binding affinity upon N-terminal acetylation: acetylated vs free amino group peptide; for binding to WDR5: up to the concentrations tested; for times less potent than Ac-3mer: compared to Ac-3mer (Ac-ARA-NH2)

times more potent than the WIN peptide (Ki ratio vs WIN peptide): 50
Molecule: CC(=O)N[C@@H](C)C(=O)N[C@@H](CCCNC(=N)N)C(=O)N[C@@H](C)C(=O)N[C@@H](CCC(=O)O)C(=O)N[C@H](C(=O)N[C@@H](Cc1c[nH]cn1)C(=O)N[C@@H](CC(C)C)C(=O)N[C@@H](CCCNC(=N)N)C(=O)N[C@@H](CCCCN)C(=O)N[C@@H](CO)C(N)=O)C(C)C [Ac-10mer]

times increase in binding affinity upon N-terminal acetylation: 1500 | times more potent than Ac-ARA-NH2 (compared to Ac-ARA-NH2): 6
Molecule: CC(=O)N[C@@H](C)C(=O)N[C@@H](CCCNC(=N)N)C(=O)N[C@H](C(N)=O)[C@@H](C)O [Ac-H3-3mer, Ac-ART-NH2] (Ac-Ala-Arg-Thr-NH2)

times increase in binding affinity upon N-terminal acetylation: > 10000
Molecule: CC(=O)N[C@@H](C)C(=O)N[C@@H](CCCNC(=N)N)C(=O)N[C@H](C(=O)N[C@@H](CCCCN)C(=O)N[C@@H](CCC(N)=O)C(=O)N[C@H](C(=O)N[C@@H](C)C(=O)N[C@@H](CCCNC(=N)N)C(=O)N[C@@H](CCCCN)C(=O)N[C@@H](CO)C(N)=O)[C@@H](C)O)[C@@H](C)O [Ac-H3-10mer]

binding to WDR5: does not bind to WDR5
Molecule: C[C@H](N)C(=O)N[C@@H](CCCNC(=N)N)C(=O)N[C@@H](C)C(N)=O [H2N-3mer, H2N-ARA-NH2] (H-Ala-Arg-Ala-NH2)

binding to WDR5: complete loss of its binding to WDR5
Molecule: CC(=O)N[C@@H](C)C(=O)N[C@@H](CCCNC(=N)N)C(=O)N(C)[C@@H](C)C(N)=O [Δ1, Ac-AR-(N-Me)A-NH2]

times less potent than Ac-3mer: 50
Molecule: CC(=O)N[C@@H](C)C(=O)N[C@@H](CCCNC(=N)N)C(=O)N[C@@H](C)C(=O)N(C)C [Δ2b, Ac-ARA-CONMe2] (Ac-Ala-Arg-Ala-NMe2)

times less potent than Ac-3mer: 10
Molecule: COC(=O)[C@H](C)NC(=O)[C@H](CCCNC(=N)N)NC(=O)[C@H](C)NC(C)=O [Δ2c, Ac-ARA-COOCH3] (Ac-Ala-Arg-Ala-OMe)

Molecule: Ac-ARAEVHL-NH2 (N-terminus and C-terminus assumed) [Ac-7mer]
fold decrease in binding affinity vs Ac-10mer (compared to Ac-10mer): 10

Molecule: Ac-ARTKQTA-NH2 [Ac-H3-7mer, Ac-ARTKQTA]
times increase in binding affinity upon N-terminal acetylation: > 10000
